Like-named read-outs stand apart in the source and are kept apart here.
How the values were obtained:
Type in all cases: in vivo
Tetranychus urticae [1] = assay: Tetranychus urticae spray test, OP-resistant (French bean leaf disks)
Description: (§1) • The expected efficacy of a given combination of two compounds is calculated as follows (see Colby, S. R., “Calculating Synergistic and antagonistic Responses of Herbicide Combinations”, Weeds 15, pp. 20-22, 1967): • If • X is the efficacy expressed in % mortality of the untreated control for test compound A at a concentration of m ppm respectively m g/ha, • Y is the efficacy expressed in % mortality of the untreated control for test compound B at a concentration of n ppm respectively n g/ha, • E is the efficacy expressed in % mortality of the untreated control using the mixture of A and B at m and n ppm respectively m and n g/ha, • then is
(§2) [formula] • If the observed insecticidal efficacy of the combination is higher than the one calculated as “E”, then the combination of the two compounds is more than additive, i.e. there is a synergistic effect.
Tetranychus urticae—Spray Test OP-Resistant
(§3) • Solvent: 78.0 parts by weight acetone 1.5 parts by weight dimethylformamide • Emulsifier: alkylarylpolyglycol ether
(§4) To produce a suitable preparation of active compound, 1 part by weight of active compound is mixed with the stated amount of solvents and is diluted with water, containing an emulsifier concentration of 1000 ppm, to the desired concentration. To produce a suitable preparation of a spore suspension the spores are diluted with emulsifier containing water to the desired concentration. Further test concentrations are prepared by dilution with emulsifier containing water.
French bean (Phaseolus vulgaris) leaf disks infected with all instars of the two spotted spidermite (Tetranychus urticae), are sprayed with a preparation of the active ingredient of the desired concentration.
After the specified period of time, mortality in % is determined. 100% means all spider mites have been killed and 0% means none of the spider mites have been killed. The mortality values determined thus are recalculated using the Colby-formula (see above).

Myzus persicae = Myzus persicae spray test (Chinese cabbage leaf disks); settings: mortality
Description: as §1, §2
Myzus persicae Spray Test
as §3, §4
Chinese cabbage (Brassica pekinensis) leaf disks infected with all instars of the green peach aphid (Myzus persicae), are sprayed with a preparation of the active ingredient of the desired concentration.
After the specified period of time, mortality in % is determined. 100% means all aphids have been killed; 0% means none of the aphids have been killed. The mortality values determined thus are recalculated using the Colby-formula (see above).

Tetranychus urticae [2] = assay: Tetranychus urticae spray test; OP-resistant (bean plants); settings: mortality
Description: as §1, §2
Tetranychus urticae Spray Test; OP-Resistant
Solvent: 7 parts by weight of dimethylformamide
Emulsifier: alkylaryl polyglycol ether
To produce a suitable preparation of active compound, 1 part by weight of active compound is mixed with the stated amount of solvent and is diluted with water, containing an emulsifier concentration of 1000 ppm, to the desired concentration. Further test concentrations are prepared by dilution with emulsifier containing water.
Bean plants (Phaseolus vulgaris) which are heavily infested with all stages of the two-spotted spider mite (Tetranychus urticae) are treated by being sprayed with the preparation of the active compound of the desired concentration.
After the specified period of time mortality in % is determined. 100% means all the spider mites have been killed and 0% means none of the spider mites have been killed. The mortality values determined thus are recalculated using the Colby-formula (see above).

Meloidogyne incognita = Meloidogyne incognita test (gall formation on salad roots); settings: nematicidal activity on the basis of gall formation
Description: as §1, §2
Meloidogyne incognita—Test
Solvent: 125.0 parts by weight of acetone
To produce a suitable preparation of active compound, 1 part by weight of active compound is mixed with the stated amount of solvent, and the concentrate is diluted with water to the desired concentration. To produce a suitable preparation of a spore suspension the spores are diluted with water to the desired concentration.
Vessels are filled with sand, a solution of the active ingredient, a suspension containing eggs and larvae of the southern root-knot nematode (Meloidogyne incognita) and salad seeds. The salad seeds germinate and the seedlings grow. Galls develop in the roots.
After the specified period of time nematicidal activity is determined on the basis of the percentage of gall formation. 100% means no galls were found and 0% means the number of galls found on the roots of the treated plants was equal to that in untreated control plants.

[3] = Tetranychus urticae, foliar, 144 h, read-out: Efficacy in % after 6 days
[4] = Tetranychus urticae, foliar, 144 h, 0.5 g ai/ha, mortality, 6 days, read-out: Efficacy in % after 6 days
[5] = Tetranychus urticae, foliar, 144 h, 0.6 g ai/ha, mortality, 6 days, read-out: Efficacy in % after 6 days

COCCOC(=O)C(C#N)(C(=O)c1ccccc1C(F)(F)F)c1ccc(C(C)(C)C)cc1 (racemic) [Cyflumetofen, 2-methoxyethyl (RS)-2-(4-tert-butylphenyl)-2-cyano-3-oxo-3-(α,α,α-trifluoro-o-tolyl)propionate]
Efficacy in % after 2 days (Tetranychus urticae [1]; 0.5 g ai/ha, mortality): 0% | pest or weed control at 0.5 g/ha (Tetranychus urticae [1]; [3]): 0%

Cc1cc(F)c(N=C2SCC(=O)N2CC(F)(F)F)cc1[S+]([O-])CC(F)(F)F (centres unmarked) [Cpd of formula (I)]
Efficacy in % after 6 days (Myzus persicae; 2 g ai/ha): 0% | Efficacy in % after 6 days (Myzus persicae; 8 g ai/ha): 0% | Efficacy in % after 2 days (Tetranychus urticae [1]; 0.125 g ai/ha, mortality): 0% | Efficacy in % after 2 days (Tetranychus urticae [1]; 0.5 g ai/ha, mortality): 0% | pest or weed control at 0.125 g/ha (Tetranychus urticae [1]; Tetranychus urticae, foliar, 144 h, 0.125 g ai/ha, mortality, 6 days, read-out: Efficacy in % after 6 days): 0% | pest or weed control at 0.3 g/ha (Tetranychus urticae [1]; Tetranychus urticae, foliar, 144 h, 0.3 g ai/ha, mortality, 6 days, read-out: Efficacy in % after 6 days): 0% | pest or weed control at 0.5 g/ha (Tetranychus urticae [1]; [4]): 0% | pest or weed control at 0.6 g/ha (Tetranychus urticae [1]; [5]): 0% | Efficacy in % after 3 days (Tetranychus urticae [2]; 0.4 ppm): 0% | Efficacy in % after 7 days (Tetranychus urticae [2]; 0.8 ppm): 30% | Efficacy in % after 14 days (Meloidogyne incognita; 1 ppm): 0% | Efficacy in % after 14 days (Meloidogyne incognita; 2 ppm): 70%

Cc1cc(Cl)cc(C)c1C1=C(O)C2(CCC3(CC2)OCCO3)NC1=O [Cpd of formula (IIa)]
Efficacy in % after 6 days (Myzus persicae; 16 g ai/ha): 0% | Efficacy in % after 2 days (Tetranychus urticae [1]; 1 g ai/ha, mortality): 0% | pest or weed control at 1 g/ha (Tetranychus urticae [1]; Tetranychus urticae, foliar, 144 h, 1 g ai/ha, mortality, 6 days, read-out: Efficacy in % after 6 days): 0%

Cc1ccc(-c2ccc(F)cc2)c(C)c1C1=C(O)C2(CCOCC2)NC1=O [Cpd of formula (IIb)]
Efficacy in % after 2 days (Tetranychus urticae [1]; 0.5 g ai/ha, mortality): 0% | pest or weed control at 0.5 g/ha (Tetranychus urticae [1]; [4]): 0%

Cc1nn(C)c(/C(OC(=O)C(C)(C)C)=C(\C#N)c2ccc(C(C)(C)C)cc2)c1C [Cyenopyrafen, (E)-2-(4-tert-butylphenyl)-2-cyano-1-(1,3,4-trimethylpyrazol-5-yl)vinyl 2,2-dimethylpropionate]
Efficacy in % after 6 days (Myzus persicae; 0.5 g ai/ha): 0% | Efficacy in % after 6 days (Myzus persicae; 2 g ai/ha): 0% | pest or weed control at 0.125 g/ha (Tetranychus urticae [1]; [3]): 0%

COC(c1ccc(N(C(=O)c2c(C)nn(C)c2C)C(=O)C(C)C)cc1CC(C)C)(C(F)(F)F)C(F)(F)F [Pyflubumide, 3′-isobutyl-N-isobutyryl-1,3,5-trimethyl-4′-[2,2,2-trifluoro-1-methoxy-1-(trifluoromethyl)ethyl]pyrazole-4-carboxanilide]
Efficacy in % after 2 days (Tetranychus urticae [1]; 0.0125 g ai/ha, mortality): 0% | pest or weed control at 0.0125 g/ha (Tetranychus urticae [1]; Tetranychus urticae, foliar, 144 h, 0.0125 g ai/ha, mortality, 6 days, read-out: Efficacy in % after 6 days): 0% | pest or weed control at 0.6 g/ha (Tetranychus urticae [1]; [5]): 70%

Cc1cc(C)c(C2=C(OC(=O)CC(C)(C)C)C3(CCCC3)OC2=O)c(C)c1 [Spiromesifen, 3-mesityl-2-oxo-1-oxaspiro[4.4]non-3-en-4-yl 3,3-dimethylbutyrate]
Efficacy in % after 2 days (Tetranychus urticae [1]; 0.05 g ai/ha, mortality): 0% | pest or weed control at 0.05 g/ha (Tetranychus urticae [1]; [3]): 0% | pest or weed control at 0.6 g/ha (Tetranychus urticae [1]; [3]): 0%

CCOC(=O)OC1=C(c2cc(C)ccc2C)C(=O)N[C@]12CC[C@@H](OC)CC2 [Spirotetramat, cis-4-(ethoxycarbonyloxy)-8-methoxy-3-(2,5-xylyl)-1-azaspiro[4.5]dec-3-en-2-one]
Efficacy in % after 2 days (Tetranychus urticae [1]; 0.05 g ai/ha, mortality): 0% | pest or weed control at 0.05 g/ha (Tetranychus urticae [1]; [3]): 0% | Efficacy in % after 7 days (Tetranychus urticae [2]; 2 ppm): 40% | Efficacy in % after 14 days (Meloidogyne incognita; 30 ppm): 0% | Efficacy in % after 14 days (Meloidogyne incognita; 60 ppm): 0%

abamectin
Efficacy in % after 2 days (Tetranychus urticae [1]; 0.00125 g ai/ha, mortality): 0% | Efficacy in % after 6 days (Tetranychus urticae [1]; 0.015 g ai/ha, mortality, 6 days): 70% | Efficacy in % after 6 days (Tetranychus urticae [1]; 0.03 g ai/ha, mortality, 6 days): 70% | Efficacy in % after 3 days (Tetranychus urticae [2]; 0.01 ppm): 0%

emamectin benzoate [Emamectin-benzoate]
Efficacy in % after 2 days (Tetranychus urticae [1]; 0.003125 g ai/ha, mortality): 0% | Efficacy in % after 6 days (Tetranychus urticae [1]; 0.003125 g ai/ha, mortality, 6 days): 0% | Efficacy in % after 2 days (Tetranychus urticae [1]; 0.0125 g ai/ha, mortality): 0% | Efficacy in % after 6 days (Tetranychus urticae [1]; 0.0125 g ai/ha, mortality, 6 days): 0% | Efficacy in % after 6 days (Tetranychus urticae [1]; 0.15 g ai/ha, mortality, 6 days): 0%

milbemectin
Efficacy in % after 6 days (Tetranychus urticae [1]; 0.75 g ai/ha, mortality, 6 days): 0% | Efficacy in % after 6 days (Tetranychus urticae [1]; 1.5 g ai/ha, mortality, 6 days): 0%

spinosad
Efficacy in % after 2 days (Tetranychus urticae [1]; 0.03125 g ai/ha, mortality): 0% | Efficacy in % after 6 days (Tetranychus urticae [1]; 0.03125 g ai/ha, mortality, 6 days): 0% | Efficacy in % after 6 days (Tetranychus urticae [1]; 0.125 g ai/ha, mortality, 6 days): 0%
